Where “and” joins values, the source holds several entries; their conditions need not be identical. Equal entries are not always repeated. Toxic doses and inconclusive results are not listed. How the source made its calls: active means survival T/C of 150% or more; inactive means T/C below 125% in these data.
System: BDF1 mice, B16 melanoma ip, median survival T/C
Assay: NCI In Vivo Anticancer Drug Screen. Data for tumor model B16 Melanoma (intraperitoneal) in B6D2F1 (BDF1) mice
Conditions: endpoint: median survival time, higher = longer survival
Method in brief: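 Vehicle-treated animals serve as the reference (C); treated animals (T) are scored for survival or tumor size after tumor transplantation.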

Measured: T/C

O=C1c2ccccc2C(=O)c2c(NCCNCCO)ccc(NCCNCCO)c21
active: dose: 1.0 mg/kg/injection, schedule: Q01DX009 (ip), vehicle: saline with Tween-80 152 % of control | dose: 1.0 mg/kg/injection, schedule: Q02DX009 (ip), vehicle: saline 159 % of control | dose: 1.0 mg/kg/injection, schedule: Q03HX016 (ip), vehicle: acid diluted with saline 161 % of control | dose: 1.0 mg/kg/injection, schedule: Q03HX024 (ip), vehicle: acid diluted with saline 167 % of control | dose: 2.0 mg/kg/injection, schedule: Q01DX009 (ip), vehicle: acid diluted with saline 183 % of control and 208 % of control | dose: 2.0 mg/kg/injection, schedule: Q01DX009 (ip), vehicle: saline with Tween-80 175 % of control | dose: 2.0 mg/kg/injection, schedule: Q01DX009 (ip), vehicle: water 168 % of control | dose: 2.0 mg/kg/injection, schedule: Q03HX008 (ip), vehicle: acid diluted with saline 157 % of control | dose: 2.0 mg/kg/injection, schedule: Q03HX016 (ip), vehicle: acid diluted with saline 202 % of control | dose: 2.0 mg/kg/injection, schedule: Q03HX024 (ip), vehicle: acid diluted with saline 209 % of control | dose: 4.0 mg/kg/injection, schedule: Q01DX005 (ip), vehicle: saline 151 % of control | dose: 4.0 mg/kg/injection, schedule: Q01DX009 (ip), vehicle: Klucel (hydroxypropylcellulose) (HPC) 180 % of control | dose: 4.0 mg/kg/injection, schedule: Q01DX009 (ip), vehicle: saline with Tween-80 154 % of control and 188 % of control | dose: 4.0 mg/kg/injection, schedule: Q01DX009 (ip), vehicle: water 169 % of control and 172 % of control and 211 % of control | dose: 4.0 mg/kg/injection, schedule: Q02DX009 (ip), vehicle: saline 170 % of control and 188 % of control | dose: 4.0 mg/kg/injection, schedule: Q03HX008 (ip), vehicle: acid diluted with saline 206 % of control | dose: 4.0 mg/kg/injection, schedule: Q03HX016 (ip), vehicle: acid diluted with saline 204 % of control | dose: 4.0 mg/kg/injection, schedule: Q03HX024 (ip), vehicle: saline 207 % of control | dose: 8.0 mg/kg/injection, schedule: Q01DX005 (ip), vehicle: acid diluted with saline 192 % of control | dose: 8.0 mg/kg/injection, schedule: Q01DX009 (ip), vehicle: Klucel (hydroxypropylcellulose) (HPC) 158 % of control | dose: 8.0 mg/kg/injection, schedule: Q01DX009 (ip), vehicle: other 180 % of control | dose: 8.0 mg/kg/injection, schedule: Q01DX009 (ip), vehicle: saline with Tween-80 159 % of control and 190 % of control | dose: 8.0 mg/kg/injection, schedule: Q02DX009 (ip), vehicle: saline 191 % of control | dose: 8.0 mg/kg/injection, schedule: Q03HX008 (ip), vehicle: acid diluted with saline 192 % of control | dose: 8.0 mg/kg/injection, schedule: Q04DX003 (ip), vehicle: acid diluted with saline 195 % of control | dose: 8.0 mg/kg/injection, schedule: Q08DX002 (ip), vehicle: acid diluted with saline 178 % of control | dose: 16.0 mg/kg/injection, schedule: Q01DX001 (ip), vehicle: acid diluted with saline 156 % of control | dose: 16.0 mg/kg/injection, schedule: Q01DX005 (ip), vehicle: saline 166 % of control | dose: 16.0 mg/kg/injection, schedule: Q01DX009 (ip), vehicle: Klucel (hydroxypropylcellulose) (HPC) 173 % of control | dose: 16.0 mg/kg/injection, schedule: Q01DX009 (ip), vehicle: saline with Tween-80 186 % of control | dose: 16.0 mg/kg/injection, schedule: Q01DX009 (sc), vehicle: acid diluted with saline 156 % of control | dose: 16.0 mg/kg/injection, schedule: Q02DX009 (ip), vehicle: saline 180 % of control | dose: 16.0 mg/kg/injection, schedule: Q03HX008 (ip), vehicle: acid diluted with saline 209 % of control | dose: 16.0 mg/kg/injection, schedule: Q04DX003 (ip), vehicle: acid diluted with saline 204 % of control | dose: 16.0 mg/kg/injection, schedule: Q08DX002 (ip), vehicle: acid diluted with saline 173 % of control | dose: 32.0 mg/kg/injection, schedule: Q01DX001 (ip), vehicle: acid diluted with saline 157 % of control | dose: 32.0 mg/kg/injection, schedule: Q01DX001 (ip), vehicle: saline 157 % of control | dose: 32.0 mg/kg/injection, schedule: Q01DX005 (ip), vehicle: saline 181 % of control | dose: 32.0 mg/kg/injection, schedule: Q02DX009 (ip), vehicle: saline 196 % of control | dose: 32.0 mg/kg/injection, schedule: Q04DX003 (ip), vehicle: saline 153 % of control | dose: 32.0 mg/kg/injection, schedule: Q08DX002 (ip), vehicle: acid diluted with saline 196 % of control | dose: 50.0 mg/kg/injection, schedule: Q01DX001 (ip), vehicle: water 151 % of control | dose: 64.0 mg/kg/injection, schedule: Q01DX001 (ip), vehicle: acid diluted with saline 154 % of control | dose: 64.0 mg/kg/injection, schedule: Q01DX001 (ip), vehicle: saline 151 % of control | dose: 64.0 mg/kg/injection, schedule: Q04DX003 (ip), vehicle: saline 213 % of control | dose: 64.0 mg/kg/injection, schedule: Q08DX002 (ip), vehicle: acid diluted with saline 178 % of control | dose: 64.0 mg/kg/injection, schedule: Q08DX002 (ip), vehicle: saline 179 % of control
inactive: dose: 0.25 mg/kg/injection, schedule: Q01DX009 (ip), vehicle: saline with Tween-80 124 % of control | dose: 0.25 mg/kg/injection, schedule: Q01DX009 (ip), vehicle: saline 110 % of control and 111 % of control | dose: 0.5 mg/kg/injection, schedule: Q01DX009 (ip), vehicle: saline with Tween-80 118 % of control | dose: 0.5 mg/kg/injection, schedule: Q01DX009 (ip), vehicle: saline 118 % of control | dose: 1.0 mg/kg/injection, schedule: Q01DX009 (ip), vehicle: other 124 % of control | dose: 2.0 mg/kg/injection, schedule: Q03HX024 (ip), vehicle: saline 123 % of control | dose: 4.0 mg/kg/injection, schedule: Q01DX005 (iv), vehicle: saline 106 % of control | dose: 4.0 mg/kg/injection, schedule: Q01DX009 (sc), vehicle: acid diluted with saline 121 % of control | dose: 4.0 mg/kg/injection, schedule: Q01DX009 (sc), vehicle: saline 108 % of control | dose: 8.0 mg/kg/injection, schedule: Q01DX005 (iv), vehicle: saline 106 % of control | dose: 8.0 mg/kg/injection, schedule: Q01DX009 (oral), vehicle: acid diluted with saline 98 % of control | dose: 8.0 mg/kg/injection, schedule: Q01DX009 (sc), vehicle: acid diluted with saline 111 % of control | dose: 8.0 mg/kg/injection, schedule: Q01DX009 (sc), vehicle: saline 123 % of control | dose: 8.0 mg/kg/injection, schedule: Q08DX002 (ip), vehicle: saline 119 % of control | dose: 16.0 mg/kg/injection, schedule: Q01DX001 (oral), vehicle: saline 108 % of control | dose: 16.0 mg/kg/injection, schedule: Q01DX001 (sc), vehicle: acid diluted with saline 102 % of control | dose: 16.0 mg/kg/injection, schedule: Q01DX005 (iv), vehicle: saline 116 % of control | dose: 16.0 mg/kg/injection, schedule: Q01DX009 (oral), vehicle: acid diluted with saline 109 % of control | dose: 16.0 mg/kg/injection, schedule: Q01DX009 (oral), vehicle: saline 101 % of control | dose: 16.0 mg/kg/injection, schedule: Q03HX008 (ip), vehicle: saline 117 % of control | dose: 16.0 mg/kg/injection, schedule: Q03HX016 (ip), vehicle: acid diluted with saline 98 % of control | dose: 16.0 mg/kg/injection, schedule: Q08DX002 (ip), vehicle: saline 112 % of control | dose: 18.75 mg/kg/injection, schedule: Q01DX001 (ip), vehicle: Klucel (hydroxypropylcellulose) (HPC) 111 % of control | dose: 32.0 mg/kg/injection, schedule: Q01DX001 (oral), vehicle: saline 106 % of control | dose: 32.0 mg/kg/injection, schedule: Q01DX001 (sc), vehicle: acid diluted with saline 100 % of control | dose: 32.0 mg/kg/injection, schedule: Q01DX005 (iv), vehicle: saline 119 % of control | dose: 32.0 mg/kg/injection, schedule: Q01DX009 (oral), vehicle: acid diluted with saline 113 % of control | dose: 32.0 mg/kg/injection, schedule: Q01DX009 (oral), vehicle: saline 112 % of control | dose: 32.0 mg/kg/injection, schedule: Q01DX009 (sc), vehicle: acid diluted with saline 114 % of control | dose: 32.0 mg/kg/injection, schedule: Q01DX009 (sc), vehicle: saline 100 % of control | dose: 64.0 mg/kg/injection, schedule: Q01DX001 (oral), vehicle: acid diluted with saline 109 % of control | dose: 64.0 mg/kg/injection, schedule: Q01DX001 (oral), vehicle: saline 116 % of control | dose: 64.0 mg/kg/injection, schedule: Q01DX001 (sc), vehicle: acid diluted with saline 114 % of control | dose: 64.0 mg/kg/injection, schedule: Q01DX009 (oral), vehicle: acid diluted with saline 100 % of control | dose: 64.0 mg/kg/injection, schedule: Q01DX009 (oral), vehicle: saline 112 % of control | dose: 64.0 mg/kg/injection, schedule: Q02DX009 (ip), vehicle: saline 89 % of control | dose: 128.0 mg/kg/injection, schedule: Q01DX001 (oral), vehicle: acid diluted with saline 105 % of control | dose: 128.0 mg/kg/injection, schedule: Q01DX001 (oral), vehicle: saline 106 % of control | dose: 128.0 mg/kg/injection, schedule: Q01DX009 (oral), vehicle: acid diluted with saline 115 % of control | dose: 128.0 mg/kg/injection, schedule: Q01DX009 (oral), vehicle: saline 112 % of control | dose: 128.0 mg/kg/injection, schedule: Q08DX002 (ip), vehicle: saline 106 % of control | dose: 256.0 mg/kg/injection, schedule: Q01DX001 (oral), vehicle: acid diluted with saline 96 % of control | dose: 256.0 mg/kg/injection, schedule: Q01DX001 (oral), vehicle: saline 116 % of control | dose: 512.0 mg/kg/injection, schedule: Q01DX001 (oral), vehicle: saline 97 % of control
